Experimental data published in patent publication US20120035244A1, “PARP1 TARGETED THERAPY” (THE REGENTS OF THE UNIVERSITY OF MICHIGAN, priority 2010, published 2012).
Entries after “also recorded” stand apart in the source; their conditions may differ.

Key:
PC3-ERG cells = experiment: Neutral COMET assay, ERG overexpressing PC3 cells versus controls; format: cell-based, human
[1] = tested on: DU145 model overexpressing T2:ERG; experiment: γH2A.X foci after radiation (DNA double strand break repair), isogenic DU145 model; format: cell-based; details: DU145, pre-treated with 10 μM Olaparib, then radiation
Experimental: The effect of ETS overexpression on repair of DNA double strand breaks was assayed. Isogenic PC3 and DU145 models, respectively, overexpressing either T2:ERG or ERG with a deleted ETS domain were pre-treated with or without 10 μM Olaparib and then treated with radiation. Immunofluorescence staining of γH2A.X foci was used to assess total levels of DNA damage and repair rate. The number of cells with >10 γH2A.X foci were quantified at each time point as indicated. Representative photomicrographs were taken 24 hours after treatment using an Olympus confocal microscope with a 100× Oil objective. All experiments were run in triplicate. Error bars are standard error of the mean.

22RV1 xenografts = experiment: 22RV1 mouse xenograft model; format: in vivo, mice; details: 22RV1 (ETS negative), Olaparib
Description: (§1) Olaparib was obtained from Axon Medchem (Groningen, The Netherlands).

VCaP cells = experiment: γ-H2A.X immunofluorescence, VCaP cells; format: cell-based, human; details: Olaparib for 48 hours
Experimental: Cells were seeded at 25,000 cells/mL in 4-well chamber slide 24 hours prior to the addition of siRNA or drug as indicated. Merbarone (Sigma) was dissolved in DMSO and stored at 4° C. Cells were then washed once in PBS, fixed for 15 minutes in 100% methanol, washed in PBS, permeabilized for 5 minutes in PBS containing 0.2% Triton-X, washed twice in PBS, blocked for 30 minutes in PBS containing 0.5% donkey serum (Sigma, St. Louis, Mo.), held for 45 minutes in PBS containing 0.5% donkey serum and primary antibody: anti-γ-H2A.X mouse monoclonal (Millipore Cat #05-636), anti-γ-H2A.X rabbit polyclonal (Cell Signaling, Cat #9719, Danvers, Mass.), and anti-53BP1 rabbit polyclonal (Cell Signaling, Cat #4937, Danvers, Mass.) washed 3 times with PBS, held for 30 minutes in PBS containing 0.5% donkey serum and secondary antibody: Alexa Fluor 488-anti-Mouse (Invitrogen) or Alexa Fluor 594-anti-Rabbit (Invitrogen). Cells were then stained with DAPI for 5 minutes and slides were mounted 12 hours prior to analysis using Vectashield (Vector laboratories, Burlingame, Calif.). Images were taken using 100× oil lens on an Olympus Confocal microscope at the University of Michigan microscopy imaging lab.

RWPE-ERG cells = experiment: Chicken chorioallantoic membrane (CAM) intravasation assay, RWPE-ERG cells; format: in vivo, chicken embryo; details: lower CAM three days after implantation, 40 mg/kg Olaparib, P<0.1
Experimental: (§2) The CAM assay was performed as described previously (Zijlstra, A., et al., Cancer research 62, 7083-7092 (2002)). Briefly, fertilized eggs were incubated in a rotary humidified incubator at 38° C. with for 10 days. After releasing the CAM by applying mild amount of low pressure to the hole over the air sac and cutting a square 1-cm^2 window encompassing a second hole near the allantoic vein, cultured human cells that had been pre-treated with siRNA as indicated were detached by trypsinization and re-suspended in complete medium prior to implantation of 2×10^6 cells adjacent to the mesenchyme in each egg. The windows were subsequently, sealed and the eggs were returned to a stationary incubator. Cells were then treated as indicated with 40 mg/kg body weight Olaparib which was administered on day 13, 15 and 17. Day 18 embryos were sacrificed. Tumors were then excised and weighed. […] After incubation of either the metastasis or intravasation assays, the extra-embryonic tumor and CAM, as well as the embryonic liver were harvested and analyzed for the presence of tumor cells by quantitative human alu-specific PCR. […] Quantification of human cells in the extracted DNA was done as described^14. Fluorogenic TaqMan qPCR probes were applied as above, and DNA copy numbers were quantified.

[2] = tested on: RWPE cells stably overexpressing ETV1; experiment: Basement membrane matrix invasion assay, RWPE-ETV1 cells; format: cell-based, human; details: P<0.01 for all PARP1 or DNA-PKcs treatments
Experimental: For invasion assays, the prostate cell lines RWPE-1 and VCaP were transfected with siRNA or negative controls as indicated. NU7026 (Sigma) and NU1025 (Calbiochem) were dissolved in DMSO and stored at −20° C. in the dark. Forty-eight hours post-transfection/transduction, cells were seeded onto the basement membrane matrix (EC matrix, Chemicon, Temecula, Calif.) in the chamber insert with […] pores of a 24-well culture plate in serum free media. Cells were attracted to the lower chamber by the addition of complete media as a chemoattractant. After 48 hours incubation at 37° C. with 5% CO2, the non-invading cells and EC matrix were gently removed with a cotton swab. Invasive cells, which were located on the lower side of the membrane, were stained with crystal violet, air dried and photographed. To quantify the relative number of invaded cells, colorimetric assays were performed by treating the inserts with 150 μl of 10% acetic acid (v/v) and measuring absorbance of each condition at 560 nm using a spectrophotometer (GE Healthcare).

[3] = tested on: MDA-PCa-118b (ETS negative); experiment: Human prostate cancer tissue xenograft (primagraft) MDA-PCa-118b; format: in vivo, mice; details: 40 mg/kg Olaparib
Experimental: Human prostate cancer specimens MDA-PCa 2b-T (ETV1 positive), MDA-PCa-133 (ERG positive) and MDA PCa 118b (ETS-negative) were obtained (Li, Z. G., et al. The Journal of clinical investigation 118, 2697-2710 (2008)). Each xenografted tumor tissue was aseptically harvested from the host mice. New recipient mice were anesthetized by injecting […] intraperitoneally for chemical restraint before tumor implantation. About 0.5 cm^3 size of the excised tumor tissue was directly implanted into subcutaneous pockets of 6- to 8-week-old male CB17 SCID mice (Charles River Laboratories) in a laminar flow sterile hood. Sub-cutaneous pocket was carefully closed by applying 1 or 2 wound clips. All mice were monitored for 24 hours after implantation procedure for any apparent physiologic disturbances or missing wound clips. Olaparib (40 mg/Kg body weight) treatment was started after 72 hours. […] Body weight was also monitored weekly during the course of the study.

panel of cell lines = experiment: WST chemosensitivity assay (72 hours); format: cell-based; details: after 72 hours, any of the cell lines tested
LNCaP = experiment: CAM liver metastasis assay, LNCaP; format: in vivo, chicken embryo; details: LNCaP (ETS positive), eggs treated every other day with Olaparib, P=0.1
Experimental: as §2

PC3-LACZ xenografts = experiment: PC3-LACZ mouse xenograft model; format: in vivo, mice; details: PC3-LACZ (ETS negative)
Description: as §1

## O=C(c1cc(Cc2n[nH]c(=O)c3ccccc23)ccc1F)N1CCN(C(=O)C2CC2)CC1 [Olaparib, 4-[3-(4-Cyclopropanecarbonylpiperazine-1-carbonyl)-4-fluorobenzyl]-2H-phthalazin-1-one]
PC3-ERG cells; PC3-ERG relative to PC3-LACZ, 0.5, 1, 24 and 48 hr exposure, as early as 30 min (p=0.002)
  potentiated DNA damage (COMET), time course: potentiated DNA damage was observed
PC3-ERG cells; PC3 cells with and without Olaparib, P=0.03, two-way ANOVA
  COMET tail moment increase, ERG positive cells versus controls: significantly greater increase in the tail moments
[1]
  ERG-enhanced DNA DSB damage repair (γH2A.X foci): blocked; also recorded: reversed by PARP inhibition
22RV1 xenografts
  xenograft growth: not responsive; also recorded: did not inhibit the growth
VCaP cells
  γ-H2A.X foci: very high level of γ-H2A.X foci
RWPE-ERG cells
  ERG-mediated intravasation: sufficient to block ERG-mediated intravasation
[2]
  ETV1-mediated invasion: does now effect invasion
[3]
  primagraft growth: had no effect
Panel of cell lines
  in vitro cell proliferation rate: did not have an effect
LNCaP
  formation of liver metastases: blocked the formation of liver metastases
PC3-LACZ xenografts
  xenograft growth: did not significantly inhibit xenograft growth
